Data: patent US7285556B2, “Thienopyrimidine-based inhibitors of the src family” (Board of Regents, The University of Texas Systems, priority 2000, dated 2007)
Where two headings read alike, the source gives them in different places.

What was measured:
Csk = biological target: T1, Csk (Homo sapiens, UniProt P41240); experiment: Csk tyrosine kinase activity, poly E4Y and 32P-ATP; format: biochemical; details: screening assay, 50 μg/ml poly E4Y, 0.2 mM 32P-ATP
T1 construct: GST (glutathione-S-transferase) (N); made in house; host or cells: E. coli (pGEX vector)
T1 sequence (P41240 whole entry, species assumed): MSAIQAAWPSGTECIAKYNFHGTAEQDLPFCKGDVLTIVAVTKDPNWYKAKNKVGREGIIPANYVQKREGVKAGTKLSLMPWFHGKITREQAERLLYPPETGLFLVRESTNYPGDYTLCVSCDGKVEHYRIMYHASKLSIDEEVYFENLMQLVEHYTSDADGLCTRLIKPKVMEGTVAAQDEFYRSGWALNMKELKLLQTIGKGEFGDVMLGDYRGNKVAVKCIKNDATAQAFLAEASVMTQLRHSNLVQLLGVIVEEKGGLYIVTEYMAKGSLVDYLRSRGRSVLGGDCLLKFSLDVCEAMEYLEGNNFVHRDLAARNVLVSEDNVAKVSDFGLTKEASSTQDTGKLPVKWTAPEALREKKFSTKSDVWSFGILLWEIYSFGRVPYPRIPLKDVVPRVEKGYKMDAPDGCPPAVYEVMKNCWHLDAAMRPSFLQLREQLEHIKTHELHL
Method: (§1) Recombinant human Src was expressed using the baculovirus-insect cell system and purified as published (Budde et al., 1993 and 2000). Recombinant Csk and the FGF receptor (FGFr) were expressed as glutathione-S-transferase fusion proteins using the pGEX expression vector and E. coli, and purified as described (Sun & Budde, 1995).
(§2) The tyrosine kinase activity of Src, Csk and FGFr was determined using poly E4Y and ^32P-ATP. Briefly, enzymes were assayed in a reaction mixture consisting of 0.15 M EPPS-NaOH (pH 8.0) with 6 mM MgCl2, 0.2 mM γ^32P-ATP (0.2-0.4 mCi/μmol), 10% glycerol, 0.1% Triton X-100, and poly E4Y. Poly E4Y is a synthetic peptide whose phosphorylation is measured in this assay by the addition of the radioactively labeled phosphate from the ATP (Budde et al., 1995). […] When ATP was varied (0, 50, 100 and 250 μM), poly E4Y was kept constant at 150 μg/ml.

Recombinant human Src = biological target: T2, Recombinant human Src (Homo sapiens, UniProt P12931); experiment: Src tyrosine kinase activity, poly E4Y and 32P-ATP; format: biochemical
T2 construct: made in house; host or cells: baculovirus-insect cell system
T2 sequence (P12931 whole entry): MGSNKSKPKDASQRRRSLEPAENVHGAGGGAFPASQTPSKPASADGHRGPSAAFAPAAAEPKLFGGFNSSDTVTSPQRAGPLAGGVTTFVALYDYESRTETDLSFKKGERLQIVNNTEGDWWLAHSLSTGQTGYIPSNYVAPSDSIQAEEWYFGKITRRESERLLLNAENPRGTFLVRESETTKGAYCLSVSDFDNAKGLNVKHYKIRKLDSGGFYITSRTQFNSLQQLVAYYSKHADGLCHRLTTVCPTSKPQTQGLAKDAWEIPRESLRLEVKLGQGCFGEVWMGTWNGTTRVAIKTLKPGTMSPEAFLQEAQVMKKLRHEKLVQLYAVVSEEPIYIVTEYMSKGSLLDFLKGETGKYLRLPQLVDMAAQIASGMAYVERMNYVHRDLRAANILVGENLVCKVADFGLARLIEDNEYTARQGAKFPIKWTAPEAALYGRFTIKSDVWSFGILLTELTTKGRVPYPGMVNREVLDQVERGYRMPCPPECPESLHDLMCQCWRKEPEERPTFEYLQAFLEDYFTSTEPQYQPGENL
Method: as §1, §2

[1] = Table 2, read-out: Src IC50 (especially good inhibitors of Src)
[2] = read-out: IC50 (preferred compounds for treatment of Src family-related disease)

SMILES | IC50 (Csk) [nM] | IC50 (Recombinant human Src; [1]) [nM] | IC50 (Recombinant human Src; [2]) [nM]
Cc1csc2c(NN=Cc3ccc(F)cc3)ncnc12 [Compound 6, 4-Fluorobenzaldehyde(7-methylthieno[3,2-d]pyrimidin-4-yl)hydrazone] | > 175000 |  | 
Cc1csc2c(NN=Cc3ccc(O)cc3)ncnc12 [Compound 10, 4-Hydroxybenzaldehyde(7-methylthieno[3,2-d]pyrimidin-4-yl)hydrazone] | > 176000 |  | 
CC(=O)Nc1ccc(C=NNc2ncnc3c(C)csc23)cc1 [Compound 20, 4-Acetamidobenzaldehyde(7-methylthieno[3,2-d]pyrimidin-4-yl)hydrazone] | > 154000 |  | 
Cc1csc2c(NN=CC3CCCCC3)ncnc12 [Compound 25, Cyclohexanecarboxaldehyde(7-methylthieno[3,2-d]pyrimidin-4-yl)hydrazone] | > 182000 |  | 
Cc1c(C(O)c2ccccc2)sc2c(NN=Cc3cccnc3)ncnc12 (stereo not drawn) [Compound 457, 3-Pyridinecarboxaldehyde(6-(1-hydroxy-1-phenyl)methyl-7-methylthieno[3,2-d]pyrimidin-4-yl)hydrazone] |  | ≤ 2000 | < 2000
Cc1c(C(O)c2ccccc2)sc2c(NN=Cc3ccc(C(=O)O)cc3)ncnc12 (stereo not drawn) [Compound 458, 4-Carboxybenzaldehyde(6-(1-hydroxy-1-phenyl)methyl-7-methylthieno[3,2-d]pyrimidin-4-yl)hydrazone] |  | ≤ 2000 | < 2000
Cc1c(C(O)c2ccccc2)sc2c(NN=Cc3cccs3)ncnc12 (stereo not drawn) [Compound 459, 2-Thiophenecarboxaldehyde(6-(1-hydroxy-1-phenyl)methyl-7-methylthieno[3,2-d]pyrimidin-4-yl)hydrazone] |  | ≤ 2000 | < 2000
COc1ccc(C=NNc2ncnc3c(C)c(C(O)c4ccccc4)sc23)cc1O (stereo not drawn) [Compound 460, 3-Hydroxy-4-methoxybenzaldehyde(6-(1-hydroxy-1-phenyl)methyl-7-methylthieno[3,2-d]pyrimidin-4-yl)hydrazone] |  | ≤ 2000 | < 2000
Cc1c(C(O)c2ccsc2)sc2c(NN=Cc3cccnc3)ncnc12 (stereo not drawn) [Compound 461, 3-Pyridinecarboxaldehyde(6-(1-hydroxy-1-[3-thienyl])methyl-7-methylthieno[3,2-d]pyrimidin-4-yl)hydrazone] |  | ≤ 2000 | < 2000
Cc1c(C(O)c2ccsc2)sc2c(NN=Cc3ccc(C(=O)O)cc3)ncnc12 (stereo not drawn) [Compound 462, 4-Carboxybenzaldehyde(6-(1-hydroxy-1-[3-thienyl])methyl-7-methylthieno[3,2-d]pyrimidin-4-yl)hydrazone] |  | ≤ 2000 | < 2000
Cc1c(C(O)c2ccsc2)sc2c(NN=Cc3cccs3)ncnc12 (stereo not drawn) [Compound 463, 2-Thiophenecarboxaldehyde(6-(1-hydroxy-1-[3-thienyl])methyl-7-methylthieno[3,2-d]pyrimidin-4-yl)hydrazone] |  | ≤ 2000 | < 2000
COc1ccc(C=NNc2ncnc3c(C)c(C(O)c4ccsc4)sc23)cc1O (stereo not drawn) [Compound 464, 3-Hydroxy-4-methoxybenzaldehyde(6-(1-hydroxy-1-[3-thienyl])methyl-7-methylthieno[3,2-d]pyrimidin-4-yl)hydrazone] |  | ≤ 2000 | < 2000
Cc1c(C(=O)O)sc2c(NN=Cc3cccnc3)ncnc12 [Compound 465, 3-Pyridinecarboxaldehyde(6-carboxy-7-methylthieno[3,2-d]pyrimidin-4-yl)hydrazone] |  | ≤ 2000 | < 2000
Cc1c(C(=O)O)sc2c(NN=Cc3ccc(C(=O)O)cc3)ncnc12 [Compound 466, 4-Carboxybenzaldehyde(6-carboxy-7-methylthieno[3,2-d]pyrimidin-4-yl)hydrazone] |  | ≤ 2000 | < 2000
Cc1c(C(=O)O)sc2c(NN=Cc3cccs3)ncnc12 [Compound 467, 2-Thiophenecarboxaldehyde(6-carboxy-7-methylthieno[3,2-d]pyrimidin-4-yl)hydrazone] |  |  | < 2000
COc1ccc(C=NNc2ncnc3c(C)c(C(=O)O)sc23)cc1O [Compound 468, 3-Hydroxy-4-methoxybenzaldehyde(6-carboxy-7-methylthieno[3,2-d]pyrimidin-4-yl)hydrazone] |  | ≤ 2000 | < 2000
Cc1c(C(O)C2CCCCC2)sc2c(NN=Cc3cccnc3)ncnc12 (stereo not drawn) [Compound 469, 3-Pyridinecarboxaldehyde(6-(1-cyclohexyl-1-hydroxy)methyl-7-methylthieno[3,2-d]pyrimidin-4-yl)hydrazone] |  | ≤ 2000 | < 2000

SMILES | IC50 (Csk) [nM] | IC50 (Recombinant human Src; [1]) [nM] | IC50 (Recombinant human Src; [2]) [nM]
Cc1c(C(O)C2CCCCC2)sc2c(NN=Cc3ccc(C(=O)O)cc3)ncnc12 (stereo not drawn) [Compound 470, 4-Carboxybenzaldehyde(6-(1-cyclohexyl-1-hydroxy)methyl-7-methylthieno[3,2-d]pyrimidin-4-yl)hydrazone] |  | ≤ 2000 | < 2000
Cc1c(C(O)C2CCCCC2)sc2c(NN=Cc3cccs3)ncnc12 (stereo not drawn) [Compound 471, 2-Thiophenecarboxaldehyde(6-(1-cyclohexyl-1-hydroxy)methyl-7-methylthieno[3,2-d]pyrimidin-4-yl)hydrazone] |  | ≤ 2000 | < 2000
COc1ccc(C=NNc2ncnc3c(C)c(C(O)C4CCCCC4)sc23)cc1O (stereo not drawn) [Compound 472, 3-Hydroxy-4-methoxybenzaldehyde(6-(1-cyclohexyl-1-hydroxy)methyl-7-methylthieno[3,2-d]pyrimidin-4-yl)hydrazone] |  | ≤ 2000 | < 2000
Cc1c(C(Cc2ccccc2)c2ccccc2)sc2c(NN=Cc3cccnc3)ncnc12 (stereo not drawn) [Compound 473, 3-Pyridinecarboxaldehyde(6-(1-benzyl-1-phenyl)methyl-7-methylthieno[3,2-d]pyrimidin-4-yl)hydrazone] |  | ≤ 2000 | < 2000
Cc1c(C(Cc2ccccc2)c2ccccc2)sc2c(NN=Cc3cccs3)ncnc12 (stereo not drawn) [Compound 474, 2-Thiophenecarboxaldehyde(6-(1-benzyl-1-phenyl)methyl-7-methylthieno[3,2-d]pyrimidin-4-yl)hydrazone] |  | ≤ 2000 | < 2000
Cc1c(CO)sc2c(NN=Cc3cccnc3)ncnc12 [Compound 476, 3-Pyridinecarboxaldehyde(6-hydroxymethyl-7-methylthieno[3,2-d]pyrimidin-4-yl)hydrazone] |  | ≤ 2000 | < 2000
Cc1c(CO)sc2c(NN=Cc3ccc(C(=O)O)cc3)ncnc12 [Compound 477, 4-Carboxybenzaldehyde(6-hydroxymethyl-7-methylthieno[3,2-d]pyrimidin-4-yl)hydrazone] |  | ≤ 2000 | < 2000
COc1ccc(C=NNc2ncnc3c(C)c(CO)sc23)cc1O [Compound 478, 3-Hydroxy-4-methoxybenzaldehyde(6-hydroxymethyl-7-methylthieno[3,2-d]pyrimidin-4-yl)hydrazone] |  | ≤ 2000 | < 2000
Cc1c(C(O)c2cccnc2)sc2c(NN=Cc3cccnc3)ncnc12 (stereo not drawn) [Compound 483, 3-Pyridinecarboxaldehyde(6-(1-hydroxy-1-[3-pyridyl])methyl-7-methylthieno[3,2-d]pyrimidin-4-yl)hydrazone] |  | ≤ 2000 | < 2000
Cc1c(C(O)c2cccnc2)sc2c(NN=Cc3ccc(C(=O)O)cc3)ncnc12 (stereo not drawn) [Compound 484, 4-Carboxybenzaldehyde(6-(1-hydroxy-1-[3-pyridyl])methyl-7-methylthieno[3,2-d]pyrimidin-4-yl)hydrazone] |  | ≤ 2000 | < 2000
Cc1c(C(O)c2cccnc2)sc2c(NN=Cc3cccs3)ncnc12 (stereo not drawn) [Compound 485, 2-Thiophenecarboxaldehyde(6-(1-hydroxy-1-[3-pyridyl])methyl-7-methylthieno[3,2-d]pyrimidin-4-yl)hydrazone] |  | ≤ 2000 | < 2000
COc1ccc(C=NNc2ncnc3c(C)c(C(O)c4cccnc4)sc23)cc1O (stereo not drawn) [Compound 486, 3-Hydroxy-4-methoxybenzaldehyde(6-(1-hydroxy-1-[3-pyridyl])methyl-7-methylthieno[3,2-d]pyrimidin-4-yl)hydrazone] |  | ≤ 2000 | < 2000
Cc1c(C(O)c2cccs2)sc2c(NN=Cc3cccnc3)ncnc12 (stereo not drawn) [Compound 487, 3-Pyridinecarboxaldehyde(6-(1-hydroxy-1-[2-thienyl])methyl-7-methylthieno[3,2-d]pyrimidin-4-yl)hydrazone] |  |  | < 2000
Cc1c(C(O)c2cccs2)sc2c(NN=Cc3ccc(C(=O)O)cc3)ncnc12 (stereo not drawn) [Compound 488, 4-Carboxybenzaldehyde(6-(1-hydroxy-1-[2-thienyl])methyl-7-methylthieno[3,2-d]pyrimidin-4-yl)hydrazone] |  | ≤ 2000 | < 2000
Cc1c(C(O)c2cccs2)sc2c(NN=Cc3cccs3)ncnc12 (stereo not drawn) [Compound 489, 2-Thiophenecarboxaldehyde(6-(1-hydroxy-1-[2-thienyl])methyl-7-methylthieno[3,2-d]pyrimidin-4-yl)hydrazone] |  | ≤ 2000 | < 2000
COc1ccc(C=NNc2ncnc3c(C)c(C(O)c4cccs4)sc23)cc1O (stereo not drawn) [Compound 490, 3-Hydroxy-4-methoxybenzaldehyde(6-(1-hydroxy-1-[2-thienyl])methyl-7-methylthieno[3,2-d]pyrimidin-4-yl)hydrazone] |  | ≤ 2000 | < 2000
